Experimental data: ChEMBL document CHEMBL4420070, “6-6 Fused Bicyclic Heteroaryl Compounds and their Use as LATS Inhibitors” (2018)
Active and inactive are the calls of the source. No cut-off for these calls is given here.

Legend:
[1] = target: T1, Serine/threonine-protein kinase LATS (Homo sapiens) (UniProt Q9NRM7+O95835); experiment: Inhibition of LATS in human limbal epithelial cells assessed as induction of limbal stem cell expansion by measuring expansion factor ratio at 10 uM measured after 2 weeks by p63alpha expression detection based immunohistochemistry relative to control; set-up: scale not given: the % may be the effect or the level left
T1 sequence (Q9NRM7 whole entry, looked up, one chain of several): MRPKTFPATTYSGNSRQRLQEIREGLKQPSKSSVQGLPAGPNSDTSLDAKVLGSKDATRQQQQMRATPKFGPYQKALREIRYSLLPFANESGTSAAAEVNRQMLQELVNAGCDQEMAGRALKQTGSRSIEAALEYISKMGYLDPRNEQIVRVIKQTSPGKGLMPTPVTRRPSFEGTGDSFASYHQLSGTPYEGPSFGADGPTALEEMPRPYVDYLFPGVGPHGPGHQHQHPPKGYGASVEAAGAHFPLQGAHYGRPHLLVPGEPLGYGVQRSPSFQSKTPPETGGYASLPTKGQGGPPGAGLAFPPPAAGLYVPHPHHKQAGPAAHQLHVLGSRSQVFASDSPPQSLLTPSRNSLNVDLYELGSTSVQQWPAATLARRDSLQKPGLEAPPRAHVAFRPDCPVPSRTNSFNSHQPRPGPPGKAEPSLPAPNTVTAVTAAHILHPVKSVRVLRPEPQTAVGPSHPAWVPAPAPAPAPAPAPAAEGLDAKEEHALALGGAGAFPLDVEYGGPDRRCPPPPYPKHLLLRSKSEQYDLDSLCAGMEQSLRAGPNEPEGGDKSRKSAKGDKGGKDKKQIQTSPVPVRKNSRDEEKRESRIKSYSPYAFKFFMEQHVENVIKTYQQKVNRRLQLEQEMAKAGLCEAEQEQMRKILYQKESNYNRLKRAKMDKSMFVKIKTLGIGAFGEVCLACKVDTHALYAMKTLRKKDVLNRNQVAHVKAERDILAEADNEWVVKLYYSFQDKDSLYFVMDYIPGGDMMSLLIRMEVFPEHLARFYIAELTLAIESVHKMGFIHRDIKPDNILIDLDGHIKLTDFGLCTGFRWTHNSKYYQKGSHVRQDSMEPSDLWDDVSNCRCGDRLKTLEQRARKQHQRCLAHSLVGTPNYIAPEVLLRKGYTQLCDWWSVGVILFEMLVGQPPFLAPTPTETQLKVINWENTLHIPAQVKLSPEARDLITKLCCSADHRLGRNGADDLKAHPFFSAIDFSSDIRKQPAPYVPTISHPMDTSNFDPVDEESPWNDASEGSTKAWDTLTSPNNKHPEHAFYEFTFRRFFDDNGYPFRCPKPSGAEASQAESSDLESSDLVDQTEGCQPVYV

[2] = target: T1, Serine/threonine-protein kinase LATS (Homo sapiens); experiment: Inhibition of LATS in human corneal endothelium cells assessed as induction of cell expansion by measuring cell density at 10 uM by Sytox orange dye based epifluorescence microscopy
[3] = target: T2, Serine/threonine-protein kinase LATS1 (Homo sapiens, UniProt O95835); experiment: Inhibition of human LATS1 kinase domain (589 to 1130 amino acids) incubated for 30 mins by HTRF assay
T2 sequence (O95835 whole entry): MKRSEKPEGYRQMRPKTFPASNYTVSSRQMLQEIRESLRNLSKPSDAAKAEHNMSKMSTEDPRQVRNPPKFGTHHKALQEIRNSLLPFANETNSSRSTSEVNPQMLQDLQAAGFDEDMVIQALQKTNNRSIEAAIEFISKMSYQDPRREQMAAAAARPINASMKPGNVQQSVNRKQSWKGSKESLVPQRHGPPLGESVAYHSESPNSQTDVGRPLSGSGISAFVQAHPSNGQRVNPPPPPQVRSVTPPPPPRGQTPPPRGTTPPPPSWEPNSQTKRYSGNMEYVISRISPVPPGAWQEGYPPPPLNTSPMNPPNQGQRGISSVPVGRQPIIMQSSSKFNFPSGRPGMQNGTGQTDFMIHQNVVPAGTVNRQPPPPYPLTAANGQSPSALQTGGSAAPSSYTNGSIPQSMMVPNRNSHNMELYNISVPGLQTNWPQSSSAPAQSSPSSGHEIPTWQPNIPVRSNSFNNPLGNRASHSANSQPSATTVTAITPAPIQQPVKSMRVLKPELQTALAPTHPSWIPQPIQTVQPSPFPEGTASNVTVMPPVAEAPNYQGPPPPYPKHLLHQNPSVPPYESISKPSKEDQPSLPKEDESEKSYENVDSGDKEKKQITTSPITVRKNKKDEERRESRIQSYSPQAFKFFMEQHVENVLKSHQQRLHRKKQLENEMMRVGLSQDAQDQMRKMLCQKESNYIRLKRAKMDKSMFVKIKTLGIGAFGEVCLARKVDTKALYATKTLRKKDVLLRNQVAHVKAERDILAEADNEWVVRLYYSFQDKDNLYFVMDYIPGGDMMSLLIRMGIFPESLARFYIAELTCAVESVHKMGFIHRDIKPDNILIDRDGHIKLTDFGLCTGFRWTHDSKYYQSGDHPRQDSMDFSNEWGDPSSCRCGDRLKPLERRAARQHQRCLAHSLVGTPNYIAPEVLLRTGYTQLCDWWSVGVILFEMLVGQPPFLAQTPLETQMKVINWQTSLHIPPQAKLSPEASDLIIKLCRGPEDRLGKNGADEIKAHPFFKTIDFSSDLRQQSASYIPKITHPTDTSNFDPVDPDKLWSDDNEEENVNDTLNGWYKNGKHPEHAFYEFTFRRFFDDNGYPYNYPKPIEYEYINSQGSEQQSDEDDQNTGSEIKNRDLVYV

Mus musculus [4] = experiment: Inhibition of LATS in C57BL/6 mouse with full-thickness excisional wounds assessed as up-regulation of YAP target gene Cyr61 expression at 0.2 to 2 mg/ml administered topically by RT-PCR analysis; format: functional, organism-based
Mus musculus [5] = experiment: Induction of basal skin cell proliferation in C57BL/6 mouse at 250 ug administered topically twice per day by micrography; format: functional, organism-based
Mus musculus [6] = experiment: Induction of epidermal thickness in C57BL/6 mouse at 250 ug administered topically twice per day by micrography; format: functional, organism-based
[7] = target: T1, Serine/threonine-protein kinase LATS (Homo sapiens); experiment: Inhibition of LATS in human limbal epithelial cells assessed as increase in YAP level at 10 uM incubated for 24 hrs by immunostaining based assay; details: Epithelial cell
[8] = target: T1, Serine/threonine-protein kinase LATS (Homo sapiens); experiment: Inhibition of LATS in human limbal epithelial cells assessed as reduction in YAP phosphorylation level at 10 uM incubated for 1 hr by Western blot analysis; format: cell-based; details: Epithelial cell
[9] = target: T1, Serine/threonine-protein kinase LATS (Homo sapiens); experiment: Inhibition of LATS in human limbal epithelial cells assessed as induction of limbal stem cell expansion by measuring p63alpha expression at 10 uM measured after 2 weeks by immunohistochemistry; format: cell-based
[10] = target: T1, Serine/threonine-protein kinase LATS (Homo sapiens); experiment: Inhibition of LATS in human limbal epithelial cells assessed as induction of limbal stem cell expansion marker expression by measuring deltaN-p63-alphabetagamma protein expression at 10 uM incubated for 8 to 10 days by immunohistochemistry; format: cell-based
[11] = target: T1, Serine/threonine-protein kinase LATS (Homo sapiens); experiment: Inhibition of LATS in human limbal epithelial cells assessed as induction of limbal stem cell expansion marker expression by measuring ABCG2 protein expression at 10 uM incubated for 8 to 10 days by immunohistochemistry; format: cell-based
[12] = target: T1, Serine/threonine-protein kinase LATS (Homo sapiens); experiment: Inhibition of LATS in human limbal epithelial cells assessed as induction of limbal stem cell expansion marker expression by measuring C/EBPdelta protein expression at 10 uM incubated for 8 to 10 days by immunohistochemistry; format: cell-based
[13] = target: T1, Serine/threonine-protein kinase LATS (Homo sapiens); experiment: Inhibition of LATS in human corneal endothelium cells assessed as increase in YAP level at 10 uM incubated for 24 hrs by immunohistochemistry
[14] = target: T1, Serine/threonine-protein kinase LATS (Homo sapiens); experiment: Inhibition of LATS in human corneal endothelium cells assessed as reduction in YAP phosphorylation at 10 uM incubated for 1 hr by Western blot analysis
[15] = target: T1, Serine/threonine-protein kinase LATS (Homo sapiens); experiment: Inhibition of LATS in human corneal endothelium cells assessed as induction of cell proliferation measured every 3 hrs for 10 days
[16] = target: T1, Serine/threonine-protein kinase LATS (Homo sapiens); experiment: Inhibition of LATS in human limbal epithelial cells assessed as induction of cell differentiation into corneal epithelial cells by measuring keratin-12 expression at 10 uM incubated for 8 to 10 days followed by medium change to DMEM medium without serum and compound for further incubation for 4 to 8 days by confocal microscopy; format: cell-based
[17] = target: T1, Serine/threonine-protein kinase LATS (Homo sapiens); experiment: Inhibition of LATS in human corneal endothelium cells assessed as induction of tight junctions formation by measuring ZO1 expression at 10 uM incubated for 10 days by immunofluorescence staining based confocal microscopy
[18] = target: T1, Serine/threonine-protein kinase LATS (Homo sapiens); experiment: Inhibition of LATS in human corneal endothelium cells assessed as induction of normal corneal endothelial cell morphology at 10 uM incubated for 10 days by immunofluorescence staining based confocal microscopy
[19] = target: T1, Serine/threonine-protein kinase LATS (Homo sapiens); experiment: Inhibition of LATS in human corneal endothelium cells assessed as induction of cell expansion by measuring Collagen 8a2 gene expression at 10 uM incubated for 10 days by RT-PCR analysis
[20] = target: T1, Serine/threonine-protein kinase LATS (Homo sapiens); experiment: Inhibition of LATS in human corneal endothelium cells assessed as induction of cell expansion by measuring AQP1 gene expression at 10 uM incubated for 10 days by RT-PCR analysis
[21] = target: T1, Serine/threonine-protein kinase LATS (Homo sapiens); experiment: Inhibition of LATS in human corneal endothelium cells assessed as induction of cell expansion by measuring SLC4A11 gene expression at 10 uM incubated for 10 days by RT-PCR analysis
[22] = target: T1, Serine/threonine-protein kinase LATS (Homo sapiens); experiment: Inhibition of LATS in human corneal endothelium cells assessed as induction of cell expansion by measuring Na/K ATPase protein expression at 10 uM incubated for 10 days by immunohistochemistry
[23] = target: T1, Serine/threonine-protein kinase LATS (Homo sapiens); experiment: Inhibition of LATS in human corneal endothelium cells assessed as induction of cell expansion by measuring Collagen 8a2 protein expression at 10 uM incubated for 10 days by immunohistochemistry
Mus musculus [24] = experiment: Inhibition of LATS in C57BL/6J mouse assessed as change in CTGF mRNA expression level at 30 mg/kg, po administered as single dose measured after 2 hrs by qRT-PCR analysis relative to control; format: functional
Mus musculus [25] = experiment: Inhibition of LATS in C57BL/6J mouse assessed as change in Cyr61 mRNA expression level at 30 mg/kg, po administered as single dose measured after 2 hrs by qRT-PCR analysis relative to control; format: functional
Mus musculus [26] = experiment: Inhibition of LATS in C57BL/6J mouse assessed as change in Ki67 protein expression level at 30 mg/kg, po administered as single dose measured after 24 hrs by immunohistochemistry analysis relative to control; format: functional
Oryctolagus cuniculus [27] = species: Oryctolagus cuniculus; experiment: Induction of tissue regeneration in NZA rabbit with limbal stem cell deficiency transplanted with 10 uM compound treated human limbal stem cells assessed as induction of limbal stem cell population expansion by measuring regeneration of keratin-12-positive corneal epithelium using compound attached to contact lens using GelMA polymerization and delivered into corneal surface; format: functional, organism-based
Oryctolagus cuniculus [28] = species: Oryctolagus cuniculus; experiment: Induction of tissue regeneration in NZA rabbit with limbal stem cell deficiency transplanted with 10 uM compound treated human limbal stem cells assessed as induction of limbal stem cell population expansion by human mitochondrial protein expression in corneal epithelium of transplanted eyes using compound attached to contact lens using GelMA polymerization and delivered into corneal surface; format: functional, organism-based
[29] = Total drug level in cell pellets of human limbal stem cells by LC-MS analysis; format: ADME
[30] = Drug level in post wash cell pellets of human limbal stem cells by LC-MS analysis; format: ADME

SMILES: CCCNc1nc(-c2ccncc2)nc2cnccc12
- Activity [1]: 57 to 97%
- Activity [2]: 3270 /mm2

SMILES: CC1(C)CC(O)CCN1c1cc(-c2ccncc2Cl)nc2cnccc12 (stereo not given)
- IC50 [3]: 20 nM

SMILES: O=C(O)CCCNc1nc(-c2ccncc2)nc2cnccc12
- IC50 [3]: > 2500 nM

SMILES: FC(F)(F)C1(Nc2nc(-c3ccncc3)nc3cnccc23)CCC1
- Activity [1]: 57 to 97%
- Activity [2]: 3300 /mm2

SMILES: Cc1n[nH]cc1-c1nc(NC2(C)CC2)c2ccncc2n1
- inhibition (Mus musculus [4]): Dose-dependent effect
- Activity (Mus musculus [5]): Active
- Activity (Mus musculus [6]): Active
- inhibition [7]: Active
- inhibition [8]: Active
- inhibition [9]: Active
- Activity [1]: 57 to 97%
- inhibition [10]: Active
- inhibition [11]: Active
- inhibition [12]: Active
- inhibition [13]: Active
- inhibition [14]: Active
- inhibition [15]: Active
- Activity [2]: 2030 /mm2

SMILES: Cc1n[nH]c(C)c1-c1nc(NC(C)(C)C(F)(F)F)c2ccncc2n1
- IC50 [3]: 10 nM

SMILES: CC(C)(O)CC(C)(C)Nc1nc(-c2ccncc2)nc2cnccc12
- inhibition [7]: Active
- inhibition [8]: Active
- inhibition [9]: Active
- Activity [1]: 57 to 97%
- inhibition [10]: Active
- inhibition [11]: Active
- inhibition [12]: Active
- inhibition [16]: Active
- inhibition [13]: Active
- inhibition [14]: Active
- inhibition [15]: Active
- Activity [2]: 3870 /mm2
- inhibition [17]: Active
- inhibition [18]: Active
- inhibition [19]: Active
- inhibition [20]: Active
- inhibition [21]: Active
- inhibition [22]: Active
- inhibition [23]: Active

SMILES: CC(C)(CO)Nc1nc(-c2ccncc2)nc2cnccc12
- Activity [1]: 57 to 97%
- Activity [2]: 2500 /mm2

SMILES: FC(F)(F)C1(Nc2nc(-c3ccncc3)cc3cnccc23)CC1
- Activity [1]: 57 to 97%
- Activity [2]: 2780 /mm2

SMILES: CCCNc1nc(-c2c[nH]nc2C(F)(F)F)nc2cnccc12
- Activity [1]: 57 to 97%
- Activity [2]: 1890 /mm2

SMILES: c1cc(-c2nc(NCCCc3nnn[nH]3)c3ccncc3n2)ccn1
- fold change (FC) (Mus musculus [24]): 2.1
- fold change (FC) (Mus musculus [25]): 3.5
- fold change (FC) (Mus musculus [26]): 3.3

SMILES: c1cc(-c2nc(NC3CCCC3)c3ccncc3n2)ccn1
- Activity [1]: 57 to 97%
- Activity [2]: 1700 /mm2

SMILES: O[C@H]1CCC[C@@H]1Nc1nc(-c2ccncc2)nc2cnccc12
- Activity [1]: 57 to 97%
- Activity [2]: 25 /mm2

SMILES: CC1CCCC1Nc1nc(-c2ccncc2)nc2cnccc12 (stereo not given)
- Activity [1]: 57 to 97%
- Activity [2]: 1630 /mm2

SMILES: CC(C)(O)COCC(C)(C)Nc1nc(-c2ccncc2)nc2cnccc12
- Activity (Oryctolagus cuniculus [27]): Active
- Activity (Oryctolagus cuniculus [28]): Active
- Drug uptake [29]: 178 pg
- Drug uptake [30]: 7.32 to 14.4 nM

SMILES: FC(F)(F)C1CN(c2nc(-c3ccncc3)nc3cnccc23)CCN1 (stereo not given)
- Activity [1]: 57 to 97%
- Activity [2]: 2070 /mm2

SMILES: CC(C)N(C)c1nc(-c2ccncc2)nc2cnccc12
- Drug uptake [29]: 415 pg
- Drug uptake [30]: 13.5 to 46.5 nM
- Activity [2]: 3910 /mm2

SMILES: CC(C)(Nc1nc(-c2ccncc2Cl)nc2cnccc12)C(F)(F)F
- Activity [1]: 57 to 97%
- Activity [2]: 1180 /mm2

SMILES: CC(C)Nc1nc(-c2ccncc2)nc2cnccc12
- Activity [1]: 57 to 97%
- Activity [2]: 3380 /mm2

SMILES: CN(C)CCC(C)(C)Nc1nc(-c2ccncc2)nc2cnccc12
- IC50 [3]: 1 nM

SMILES: c1cc(-c2cc(NC3CCCC3)c3ccncc3n2)ccn1
- IC50 [3]: 7 nM
